Several values for one entry are separate records, joined by “and”; a condition that tells them apart may be missing. Equal values may be shown once. Activity calls are given as the source filed them. No cut-off for these calls is given here.
How the values were obtained:
[1] = target: Cannabinoid receptor 1 (Mus musculus, UniProt P47746); experiment: Displacement of [3H]-CP55,940 from CB1 receptor in mouse whole brain membranes after 60 mins by liquid scintillation spectrometry; assay type: cell membranes, Membrane
[2] = target: Cannabinoid receptor 2 (Homo sapiens, UniProt P34972); experiment: Displacement of [3H]-CP55,940 from human CB2 receptor transfected in CHO cell membranes after 60 mins by liquid scintillation spectrometry
[3] = target: Cannabinoid receptor 1 (Mus musculus) (UniProt P47746); experiment: Intrinsic activity at CB1 receptor in mouse N1E-115 cells assessed as phosphorylation of ERK1/2 at 1 uM after 10 mins by Western blot method relative to control; assay type: cell-based
[4] = target: Cannabinoid receptor 1 (Mus musculus) (UniProt P47746); experiment: Antagonist activity at CB1 receptor in mouse N1E-115 cells assessed as inhibition of WIN55,212-2-induced phosphorylation of ERK1/2 by measuring phosphorylated ERK1/2 level at 1 uM preincubated for 5 mins followed by WIN55,212-2 addition measured after 10 mins by Western blot method; assay type: cell-based; set-up: scale not given: the % may be the effect or the level left
[5] = Selectivity ratio of Ki for human CB2 receptor to Ki for CB1 receptor in mouse whole brain membranes; assay type: cell membranes
[6] = target: Cannabinoid receptor 1 (Mus musculus) (UniProt P47746); experiment: Intrinsic activity at CB1 receptor in mouse N1E-115 cells assessed as phosphorylation of ERK1/2 at 1 nM to 10 uM after 10 mins by Western blot method; assay type: cell-based
[7] = target: Cannabinoid receptor 1 (Homo sapiens, UniProt P21554); experiment: Displacement of [3H]-CP55,940 from human CB1 receptor transfected in CHO cell membranes
Cannabinoid receptor 1 (Homo sapiens, UniProt P21554), sequence (P21554 whole entry): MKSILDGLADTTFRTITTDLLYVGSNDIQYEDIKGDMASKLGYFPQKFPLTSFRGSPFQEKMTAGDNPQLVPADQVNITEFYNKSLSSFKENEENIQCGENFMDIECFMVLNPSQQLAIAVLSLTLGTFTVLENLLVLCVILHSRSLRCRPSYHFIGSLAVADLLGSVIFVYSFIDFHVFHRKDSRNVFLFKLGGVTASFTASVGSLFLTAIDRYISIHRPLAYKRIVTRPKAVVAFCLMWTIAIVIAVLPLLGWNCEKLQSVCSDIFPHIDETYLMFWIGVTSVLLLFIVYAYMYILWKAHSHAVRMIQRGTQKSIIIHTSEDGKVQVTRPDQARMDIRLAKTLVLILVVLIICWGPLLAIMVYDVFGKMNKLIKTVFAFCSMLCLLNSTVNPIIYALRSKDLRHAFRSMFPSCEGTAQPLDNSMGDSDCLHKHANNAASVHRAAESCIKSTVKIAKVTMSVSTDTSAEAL

Cannabinoid receptor 1 (Mus musculus, UniProt P47746), sequence (P47746 whole entry): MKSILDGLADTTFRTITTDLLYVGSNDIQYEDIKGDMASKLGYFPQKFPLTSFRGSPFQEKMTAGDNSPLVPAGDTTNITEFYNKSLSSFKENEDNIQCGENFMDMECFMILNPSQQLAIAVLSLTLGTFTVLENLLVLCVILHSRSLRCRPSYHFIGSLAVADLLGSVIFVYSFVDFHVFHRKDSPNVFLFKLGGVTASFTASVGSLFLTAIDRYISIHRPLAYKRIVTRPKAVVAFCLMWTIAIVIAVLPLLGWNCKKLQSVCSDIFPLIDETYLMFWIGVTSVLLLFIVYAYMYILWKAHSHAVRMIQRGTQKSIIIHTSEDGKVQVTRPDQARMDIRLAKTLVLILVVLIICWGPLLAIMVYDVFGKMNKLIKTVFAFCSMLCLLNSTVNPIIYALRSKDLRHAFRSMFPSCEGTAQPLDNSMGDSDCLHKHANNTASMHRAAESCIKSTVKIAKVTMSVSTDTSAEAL
Cannabinoid receptor 1 (Mus musculus), sequence (P47746 whole entry): as above
Cannabinoid receptor 2, sequence (P34972 whole entry): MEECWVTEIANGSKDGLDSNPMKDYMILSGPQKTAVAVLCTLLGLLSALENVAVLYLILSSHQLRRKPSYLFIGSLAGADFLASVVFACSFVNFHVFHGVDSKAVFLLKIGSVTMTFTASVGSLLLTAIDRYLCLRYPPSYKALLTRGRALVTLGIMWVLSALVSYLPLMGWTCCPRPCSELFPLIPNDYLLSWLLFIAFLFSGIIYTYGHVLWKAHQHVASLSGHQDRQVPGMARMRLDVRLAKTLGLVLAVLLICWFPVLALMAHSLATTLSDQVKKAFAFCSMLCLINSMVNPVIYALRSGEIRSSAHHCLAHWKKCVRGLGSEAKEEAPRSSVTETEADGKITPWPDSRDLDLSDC

## O=C(NN1CCCC1)c1nn(-c2ccc(Cl)cc2Cl)c2c1CCCc1cc(Cl)ccc1-2
[1]
  Ki: 17.2 nM
[2]
  Ki: 182 nM
[3]
  Intrinsic activity: 95%
[4]
  Activity: 103%
[5]
  Ratio Ki: 10.6

## O=C(NC[C@H]1CCCO1)c1nn(-c2ccc(Cl)cc2Cl)c2c1CCCc1cc(Cl)ccc1-2
[1]
  Ki: 24.8 nM
[2]
  Ki: 52.1 nM
[3]
  Intrinsic activity: 113%
[4]
  Activity: 118%
[5]
  Ratio Ki: 2.1

## OC(CC1CCCCC1)c1nn(-c2ccc(Cl)cc2Cl)c2c1CCCc1cc(Cl)ccc1-2 (stereo unspecified)
[1]
  Ki: 154 nM
[2]
  Ki: 24 nM
[5]
  Ratio Ki: 0.16

## Cc1ccc(Cn2nc(C(=O)NCC3CCC4CC3C4(C)C)c3c2-c2ccc(Cl)cc2CCC3)cc1 (stereo unspecified)
[1]
  Ki: 313 nM
[2]
  Ki: 9.5 nM
[5]
  Ratio Ki: 0.03

## O=C(NCC1CCCCC1)c1nn(-c2ccc(Cl)cc2Cl)c2c1CCCc1cc(Cl)ccc1-2
[1]
  Ki: 19.4 nM
[2]
  Ki: 31.8 nM
[3]
  Intrinsic activity: 100%
[4]
  Activity: 109%
[5]
  Ratio Ki: 1.64

## O=C(NC1CCCCC1)c1nn(-c2ccc(Cl)cc2Cl)c2c1CCCc1cc(Cl)ccc1-2
[1]
  Ki: 10.2 nM
[2]
  Ki: 17.9 nM
[3]
  Intrinsic activity: 113%
[4]
  Activity: 117%
[5]
  Ratio Ki: 1.75

## O=C(NCC12CC3CC(CC(C3)C1)C2)c1nn(-c2ccc(Cl)cc2Cl)c2c1CCCc1cc(Cl)ccc1-2
[1]
  Ki: 19.1 nM
[2]
  Ki: 13.3 nM
[3]
  Intrinsic activity: 98%
[4]
  Activity: 108%
[5]
  Ratio Ki: 0.69

## CCCCCCC(C)(C)c1ccc([C@@H]2C[C@H](O)CC[C@H]2CCCO)c(O)c1 [CP-55940]
[1]
  Ki: 0.62 nM

## O=C(CC1CCCCC1)c1nn(-c2ccc(Cl)cc2Cl)c2c1CCCc1cc(Cl)ccc1-2
[1]
  Ki: 8.5 nM
[2]
  Ki: 325 nM
[3]
  Intrinsic activity: 115%
[4]
  Activity: 105%
[5]
  Ratio Ki: 38.2

## Cc1c(C(=O)NN2CCCCC2)nn(-c2ccc(Cl)cc2Cl)c1-c1ccc(Cl)cc1
[3]
  Intrinsic activity: 110%
[4]
  Activity: 108%

## Cc1ccc(Cn2nc(C(=O)NCC3CCC4CC3C4(C)C)c3c2-c2cc(Cl)ccc2CCC3)cc1 (stereo unspecified)
[1]
  Ki: 169 nM
[2]
  Ki: 51.1 nM
[5]
  Ratio Ki: 0.3

## CC1(C)C2CCC(CNC(=O)c3nn(-c4ccc(Cl)cc4Cl)c4c3CCCc3cc(Cl)ccc3-4)C1C2 (stereo unspecified)
[1]
  Ki: 3.6 nM
[2]
  Ki: 19.5 nM
[6]
  Activity: Active
[5]
  Ratio Ki: 5.42

## CC1(C)C2CCC(CNC(=O)c3nn(-c4ccc(Cl)cc4Cl)c4c3CCCc3ccc(Cl)cc3-4)C1C2 (stereo unspecified)
[1]
  Ki: 17.3 nM
[2]
  Ki: 13.6 nM
[6]
  Activity: Active
[5]
  Ratio Ki: 0.79

## O=C(NN1CCCCC1)c1nn(-c2ccc(Cl)cc2Cl)c2c1CCCc1cc(Cl)ccc1-2
[1]
  Ki: 8.18 nM and 4.2 nM
[2]
  Ki: 55.7 nM and 85.2 nM
[7]
  Ki: 126 nM
[3]
  Intrinsic activity: 111%
[4]
  Activity: 115%
[5]
  Ratio Ki: 13.3

## O=C(NN1CCCCCC1)c1nn(-c2ccc(Cl)cc2Cl)c2c1CCCc1cc(Cl)ccc1-2
[1]
  Ki: 4.5 nM
[2]
  Ki: 28.1 nM
[3]
  Intrinsic activity: 107%
[4]
  Activity: 102%
[5]
  Ratio Ki: 6.24

Source: ChEMBL document CHEMBL3856211, “A critical review of both the synthesis approach and the receptor profile of the 8-chloro-1-(2',4'-dichlorophenyl)-N-piperidin-1-yl-1,4,5,6-tetrahydrobenzo[6,7]cyclohepta[1,2-c]pyrazole-3-carboxamide and analogue derivatives” (Eur J Med Chem, 2016)
